pIC50: −log10 of the molar value. Read-outs that look alike come from different tables or passages of the source.
Columns and labels:
[1] = cited from earlier work
[2] = test system: primary cultured SMCs from rat thoracic aorta; conditions: 1 μg/ml; cited from earlier work
[3] = test system: rat aortic smooth muscle cells (RASM cells); assay: RASM cell proliferation assay (Promega CellTiter 96 AQueous One Solution); type: cell-based; conditions: for inhibition of RASM cell proliferation (in words) / IC50, inhibition of SMC proliferation: RASM cells, 48 h exposure; for IC50, inhibition of SMC proliferation: light absorption
Description: (§1) Low-passage rat aortic smooth muscle cells (RASM cells) from primary isolates and human aortic smooth muscle cells (HASM cells) were obtained and grown according to the suppliers' instructions. RASM cells were cultured in a medium comprising DMEM+10% FBS+100 U/ml penicillin and […], which was changed every 48 h. Micro-cultures of 5000 cells of each of the RASM and HASM were established in quadruplicate, placedin flat-bottom 96-well micro-titer plates, and exposed to various concentrations of the trichostatin-A, oxamflatin, and rapamycin. Trichostatin-A and oxamflatin were dissolved in dimethyl sulfoxide (DMSO) at various concentrations, and stored at −20° C. prior to use; rapamycin was dissolved in methanol (100 nM). After 48 h following initial exposure, the cultures were pulsed with […] of a cell-proliferation assay solution (Promega CellTiter 96 AQueous One Solution, Catalog G3580), and incubated for 1 h. The cultures' light absorbance was then measured on a BioRad Benchmark micro-plate reader, which was set to the range Ab 490 nm-Ab 655 nm. Light absorbed by the blank was accounted for in the tests. All experiments were repeated at least twice. Cell viability was determined using trypan blue staining, after incubating RASM cells with 100 ng/ml of rapamycin and trichostatin-A for 48 h.
Referring to FIG. 1, micro-cultures consisting of RASM cells were plated into a 96-well dish, and exposed as follows: a number of the micro-cultures were sham exposed, a number were exposed to rapamycin (5, 10, and 50 ng/ml, respectively), and a number were exposed to trichostatin-A ([…], respectively). The RASM cells were exposed for 48 h, prior to assessing cell proliferation.
Referring to FIG. 2, micro-cultures of RASM cells were plated into a 96-well dish, and exposed as follows: a number of the micro-cultures were sham exposed, and a number were exposed to oxamflatin (5, 10, 50, 100, 200 and 500 ng/ml, respectively)., The RASM cells were exposed for 48 h before assessing cell proliferation.

RASM cells = assay: Cell viability by trypan blue staining; type: cell-based, rat; conditions: 100 ng/ml, 48 h
Description: as §1

[4] = test system: porcine coronary arteries; conditions: 1 mM; cited from earlier work
embryoid bodies = conditions: cited from earlier work
[5] = test system: vascular-endothelial-growth-factor-stimulated human umbilical endothelial cells; conditions: cited from earlier work
[6] = test system: IL-2 expression in Jurkat cells; conditions: read-out: IC50, inhibition of IL-2 expression; cited from earlier work

Compound | solubility [1] | PDGF-induced competence of primary cultured SMCs [2] | inhibition of RASM cell proliferation (in words) [3] | IC50, inhibition of SMC proliferation [3] | inhibition of RASM cell proliferation compared with rapamycin ([3]; equal concentrations of 50 ng/ml, 48 h) | cell viability, trypan blue exclusion, versus control cells (RASM cells) | NO-dependent relaxation of porcine coronary arteries [4] | angiogenesis in embryoid bodies (embryoid bodies; 10 nM) | invasion of type I collagen gel and formation of capillary like structures ([5]; 400 nM) | pIC50 [6] | angiogenesis in embryoid bodies (embryoid bodies; 400 nM) | invasion of type I collagen gel and formation of capillary like structures ([5]; concentration not given)
CC(/C=C/C(=O)NO)=C\[C@@H](C)C(=O)c1ccc(N(C)C)cc1 [trichostatin-A] | soluble in DMSO and ethanol | inhibited | significant inhibition of SMC proliferation | ~0.02 µg/mL | greater than that exhibited by rapamycin | no significant difference | attenuated | inhibit angiogenesis | prevent | 7.14 |  | 
O=C(CCCCCCC(=O)Nc1ccccc1)NO [SAHA, suberoylanilide hydroxamic acid] |  |  |  |  |  |  |  |  |  |  | inhibit angiogenesis | prevent
oxamflatin |  |  | inhibited RASM cell proliferation | ~0.075 µg/mL |  |  |  |  |  |  |  | 

From patent publication US20040213826A1, “Medical devices and methods for inhibiting proliferation of smooth muscle cells” (priority 2003, published 2004)
